Results: patent publication EP0243717A1 (priority 1986, dated 1987)
Values after ≈ are worked out from the molar mass of the structure shown. Values joined by “and” are separate entries in the source; they are usually repeats but may differ in a detail not shown here. Equal values may be shown once. Read-outs that look alike come from different tables or passages of the source.

Legend:
Treponema hyodysenteriae [1] = assay type: in vivo, pigs
Treponema hyodysenteriae [2] = assay type: in vivo, pigs; remark: listed apart in the source
[3] = test system: Clostridium perfringens KB 129 (ATCC 3624); test: microbe, parasite or virus in culture; assay type: cell-based
[4] = test system: Bcteroides fragilis KB 169 (ATCC 23745); assay type: cell-based; conditions: Medium B
Text: (§1) For reference, the minimum growth inhibition concentrations (MIC) to various bacteria of above five drugs and Lankacidin C are shown in Table 3.

T. hyo = test: Example 7: induced swine dysentery trial, drug in feed; assay type: in vivo, pigs; conditions: for No. Pig Days with General Appearance Score of: 1 / No. Pig Days with Hydration Score of: 1: 1 = Normal; for No. Pig Days with General Appearance Score of: 2: 2 = Depressed; for No. Pig Days with Hydration Score of: 2: 2 = mild; for No. Pig Days with General Appearance Score of: 3: 3 = Moribund; for No. Pig Days with Hydration Score of: 3: 3 = moderate; for No. Pig Days with General Appearance Score of: 4: 4 = Dead; for No. Pig Days with Hydration Score of: 4: 4 = severe
Procedure: The test is conducted using 40 crossbred pigs approximately 6 weeks of age, weighing 12.8 kg at receipt. Pigs are assigned to one of the treatments outlined in the Table below, stratified by body weight and sex, and randomly assigned to pens within a randomized block design. Sexes intermixed within pens and proportioned among treatment groups. Treatments groups are randomly assigned to pens within experimental blocks to alleviate location variables (see Table 9). Each treatment group consists of two replicate pens with five pigs per pen.
All pigs are adjusted to the test facility for four days prior to their challenge with 100 ml of T. hvodvsenteriae (T. hvo) broth culture. Respective treatment diets are provided 1 hr postchallenge and continued ad libitum for three weeks followed by a two week nonmedicated period. Clinical signs are noted and recorded for each pig each day postchallenge.
Pigs are challenged on day 5 and then provided respective treatment diets immediately postchallenge for a 21-day period followed by a 14-day nonmedication period.
Pigs are challenged on day 5 and then provided respective treatment diets immediately postchallenge for a 21-day period followed by a 14-day nonmedicated period.

[5] = test system: piricularia oryzae KF 180; test: microbe, parasite or virus in culture; assay type: cell-based
Xanthomonas oryzae KB 88 = test: microbe, parasite or virus in culture; assay type: cell-based
[6] = test system: Peptococcus variabilis KB 235 (ATCC 14955); assay type: cell-based; conditions: Medium B
Text: as §1

[7] = Group III, 5 additional healthy pigs penned with the treated pigs
[8] = Group III, second line of 5 pigs (additional healthy pigs)
[9] = […], 0 normal, 1 diarrhea, 2 feces cruentae
[10] = Treatment A, 20 g/ton hygromycin A, Total
[11] = Treatment A, 20 g/ton hygromycin A, per pen (1, 4)
[12] = Treatment B, 10 g/ton hygromycin A, Total
[13] = Treatment B, 10 g/ton hygromycin A, per pen (5, 8)
[14] = Treatment C, 50 g/ton hygromycin A, Total
[15] = Treatment C, 50 g/ton hygromycin A, per pen (2, 7)
[16] = Treatment C, 50 g/ton Carbadox, Total
[17] = Treatment C, 50 g/ton Carbadox, per pen (2, 7)
[18] = Clostridium perfringens, ATCC3624

CC(=O)[C@H]1O[C@@H](Oc2ccc(/C=C(\C)C(=O)N[C@@H]3[C@H](O)[C@@H](O)[C@H]4OCO[C@H]4[C@@H]3O)cc2O)[C@@H](O)[C@@H]1O [Hygromycin A, hygromycin A]
Average diarrhea index During observation (Treponema hyodysenteriae [1]; [7]): 0 | Change in morbidity ( %) Commencement of observation (Treponema hyodysenteriae [1]; [7]): 0% | Change in morbidity ( %) During observation (Treponema hyodysenteriae [1]; [7]): 0% | Mortality (%) (Treponema hyodysenteriae [1]; [7]): 0% | Mortality (%) (Treponema hyodysenteriae [1]; Group III, 5 infected treated pigs): 0% | Pathogen Detection Rate (%) Commencement of observation (Treponema hyodysenteriae [1]; [8]): 0% | Pathogen Detection Rate (%) During observation (Treponema hyodysenteriae [1]; [8]): 0% | attack of the disease in infected pigs or healthy pigs (Treponema hyodysenteriae [1]; Group III, during the observation period): no attack of the disease is observed | swine dysentery symptoms of infected pigs (Treponema hyodysenteriae [1]; Group III, during the therapeutic period and at the starting time of observation): no swine dysentery symptoms | Average diarrhea index pre-medication (Treponema hyodysenteriae [1]; [9]): 0 | Average diarrhea index During medication (Treponema hyodysenteriae [1]; pig, in vivo): 0 | Average diarrhea index During observation (Treponema hyodysenteriae [1]; pig, in vivo): 0 | Change in morbidity ( %) Commencement of observation (Treponema hyodysenteriae [1]; pig, in vivo): 0% | Change in morbidity ( %) During medication (Treponema hyodysenteriae [1]; pig, in vivo): 0/5 | Change in morbidity ( %) During observation (Treponema hyodysenteriae [1]; pig, in vivo): 0% | Pathogen Detection Rate (%) Commencement of observation (Treponema hyodysenteriae [1]; pig, in vivo): 0% | Pathogen Detection Rate (%) During medication (Treponema hyodysenteriae [1]; pig, in vivo): 0% | Pathogen Detection Rate (%) During observation (Treponema hyodysenteriae [1]; pig, in vivo): 0% | Pathogen Detection Rate (%) pre-infection (Treponema hyodysenteriae [1]; pig, in vivo): 0% | Pathogen Detection Rate (%) During medication days 31 to 120 (Treponema hyodysenteriae [2]; Group III, hygromycin A 0.5mg/liter drinking water, rectal swabs): 0/12 | Mortality (Treponema hyodysenteriae [2]; Group III: infected, hygromycin A 0.5mg/liter drinking water): 0 | Pathogen Detection Rate (%) Withdrawal days 31 to 120 (Treponema hyodysenteriae [2]; Group III, after end of medication, rectal swabs): 0/12 | Pathogen Detection Rate (%) Post infecting days 1 to 3 Before medication (Treponema hyodysenteriae [2]; Group III, rectal swabs): 10/12 | Pathogen Detection Rate (%) Prein-fecting (Treponema hyodysenteriae [2]; Group III, rectal swabs): 0% | Average diarrhea index During medication (Treponema hyodysenteriae [2]; [9]): 0.22 | Average diarrhea index Pre-medication (Treponema hyodysenteriae [2]; [9]): 0 | Gross pathological examination of the colon (Treponema hyodysenteriae [2]; […], necropsy after the experiment): normal | Change in morbidity (%) Third day (Treponema hyodysenteriae [2]; pig, in vivo): 0% | Change in morbidity (%) Thirtieth day (Treponema hyodysenteriae [2]; pig, in vivo): 0% | MIC ([3]; Medium B): 6.25 µg/mL (≈ 12.2 µM) | MIC [4]: 50 µg/mL (≈ 97.8 µM) | No. Pig Days with General Appearance Score of: 1 (T. hyo; [10]): 349 pig days | No. Pig Days with General Appearance Score of: 2 (T. hyo; [10]): 1 pig days | No. Pig Days with Hydration Score of: 2 (T. hyo; [10]): 0 pig days | No. Pig Days with General Appearance Score of: 3 (T. hyo; [10]): 0 pig days | No. Pig Days with Hydration Score of: 3 (T. hyo; [10]): 0 pig days | No. Pig Days with General Appearance Score of: 4 (T. hyo; [10]): 0 pig days | No. Pig Days with Hydration Score of: 4 (T. hyo; [10]): 0 pig days | No. Pig Days with General Appearance Score of: 1 (T. hyo; [11]): 174 pig days and 175 pig days | No. Pig Days with Hydration Score of: 2 (T. hyo; [11]): 0 pig days | No. Pig Days with General Appearance Score of: 3 (T. hyo; [11]): 0 pig days | No. Pig Days with Hydration Score of: 3 (T. hyo; [11]): 0 pig days | No. Pig Days with General Appearance Score of: 4 (T. hyo; [11]): 0 pig days | No. Pig Days with Hydration Score of: 4 (T. hyo; [11]): 0 pig days | No. Pig Days with Hydration Score of: 1 (T. hyo; Treatment A, 20 g/ton, Total): 350 pig days | No. Pig Days with Hydration Score of: 1 (T. hyo; Treatment A, 20 g/ton, per pen (1, 4)): 175 pig days | No. Pig Days with General Appearance Score of: 1 (T. hyo; [12]): 349 pig days | No. Pig Days with General Appearance Score of: 2 (T. hyo; [12]): 1 pig days | No. Pig Days with Hydration Score of: 2 (T. hyo; [12]): 4 pig days | No. Pig Days with General Appearance Score of: 3 (T. hyo; [12]): 0 pig days | No. Pig Days with Hydration Score of: 3 (T. hyo; [12]): 0 pig days | No. Pig Days with General Appearance Score of: 4 (T. hyo; [12]): 0 pig days | No. Pig Days with Hydration Score of: 4 (T. hyo; [12]): 0 pig days | No. Pig Days with General Appearance Score of: 1 (T. hyo; [13]): 175 pig days and 174 pig days | No. Pig Days with Hydration Score of: 2 (T. hyo; [13]): 2 pig days | No. Pig Days with General Appearance Score of: 3 (T. hyo; [13]): 0 pig days | No. Pig Days with Hydration Score of: 3 (T. hyo; [13]): 0 pig days | No. Pig Days with General Appearance Score of: 4 (T. hyo; [13]): 0 pig days | No. Pig Days with Hydration Score of: 4 (T. hyo; [13]): 0 pig days | No. Pig Days with Hydration Score of: 1 (T. hyo; Treatment B, 10 g/ton, Total): 346 pig days | No. Pig Days with Hydration Score of: 1 (T. hyo; Treatment B, 10 g/ton, per pen (5, 8)): 173 pig days | No. Pig Days with Hydration Score of: 2 (T. hyo; [14]): 3 pig days | No. Pig Days with Hydration Score of: 3 (T. hyo; [14]): 0 pig days | No. Pig Days with Hydration Score of: 4 (T. hyo; [14]): 0 pig days | No. Pig Days with Hydration Score of: 2 (T. hyo; [15]): 2 pig days and 1 pig days | No. Pig Days with Hydration Score of: 3 (T. hyo; [15]): 0 pig days | No. Pig Days with Hydration Score of: 4 (T. hyo; [15]): 0 pig days | No. Pig Days with Hydration Score of: 1 (T. hyo; Treatment C, printed 50 g/ton, Total): 347 pig days | No. Pig Days with Hydration Score of: 1 (T. hyo; Treatment C, printed 50 g/ton, per pen (2, 7), row): 173 pig days and 174 pig days | MIC [5]: >100 µg/mL | MIC (Xanthomonas oryzae KB 88; Medium E): 50 µg/mL (≈ 97.8 µM)

COC(=O)N/N=C/c1c[n+]([O-])c2ccccc2[n+]1[O-] [Carbadox, carbadox, reference compound]
No. Pig Days with General Appearance Score of: 1 (T. hyo; [16]): 349 pig days | No. Pig Days with General Appearance Score of: 2 (T. hyo; [16]): 1 pig days | No. Pig Days with General Appearance Score of: 3 (T. hyo; [16]): 0 pig days | No. Pig Days with General Appearance Score of: 4 (T. hyo; [16]): 0 pig days | No. Pig Days with General Appearance Score of: 1 (T. hyo; [17]): 174 pig days and 175 pig days | No. Pig Days with General Appearance Score of: 3 (T. hyo; [17]): 0 pig days | No. Pig Days with General Appearance Score of: 4 (T. hyo; [17]): 0 pig days

CC(=O)C(=O)N[C@@H]1/C=C(C)/C=C/[C@@H](O)C/C=C(C)/C=C/[C@@H](O)C[C@H]2OC(=O)[C@]1(C)C(=O)[C@@H]2C [Lankacidin C]
MIC ([3]; Medium B): 3.12 µg/mL (≈ 6.79 µM) | MIC [4]: 0.78 µg/mL (≈ 1.7 µM) | MIC [6]: 0.4 µg/mL (≈ 0.87 µM) | MIC [5]: >100 µg/mL | MIC (Xanthomonas oryzae KB 88; Medium E): < 3.12 µg/mL

C=C[C@]1(C)C[C@@H](OC(=O)CSCCN(CC)CC)[C@]2(C)[C@H](C)CC[C@]3(CCC(=O)[C@H]32)[C@@H](C)[C@@H]1O [Dynamutilin, tiamulin]
MIC [3, 18]: 0.78 µg/mL (≈ 1.58 µM) | MIC ([4]; read-out: MIC): < 0.2 µg/mL | MIC ([6]; read-out: MIC): 0.4 µg/mL (≈ 0.81 µM) | MIC [5]: > 100 µg/mL | MIC (Xanthomonas oryzae KB 88; Xanthomonas oryzae, KB88): < 3.12 µg/mL

CCC[C@@H]1C[C@@H](C(=O)N[C@@H]([C@H]2O[C@H](SC)[C@H](O)[C@@H](O)[C@H]2O)[C@@H](C)O)N(C)C1 [Lincomycin]
MIC [3, 18]: 0.4 µg/mL (≈ 0.984 µM) | MIC ([4]; read-out: MIC): 0.4 µg/mL (≈ 0.984 µM) | MIC ([6]; read-out: MIC): 0.78 µg/mL (≈ 1.92 µM) | MIC [5]: > 100 µg/mL | MIC (Xanthomonas oryzae KB 88; Xanthomonas oryzae, KB88): > 100 µg/mL
